Laboratory results reported in patent publication US20240366555A1, “SELECTIVE MTORC2 INHIBITOR AND USES THEREOF” (ALIAD BIOPHARMA, priority 2021, published 2024).

Legend:
mTORC1 = biological target: T1, mTORC1 (Homo sapiens, UniProt P42345); assay: In vitro mTORC1 kinase assay (GST-S6K Thr389 phosphorylation, immunoblot); assay type: biochemical; details: assay validation with dual mTOR inhibitor
T1 construct: mTORC1 was isolated by co-immunoprecipitation using Flag antibody; made in house; host or cells: HEK 293T transfected with Flag-Raptor
Description: In order to investigate the effect on mTORC1 activity of norathyriol, in vitro mTORC1 kinase assay was performed. After introducing Flag-Raptor into a human cell line 293T, mTORC1 was isolated by co-immunoprecipitation using Flag antibody. In addition, the activity of the isolated mTORC1 complex was evaluated by measuring phosphorylation of GST-S6K Thr389, which is a selective substrate of mTORC1, by immunoblot analysis. In the control group in which Flag-Raptor was not introduced, GST-S6K Thr389 phosphorylation was almost not measured. […] Therefore, it was judged that GST-S6K Thr389 phosphorylation measured in the in vitro mTORC1 kinase assay was generated by mTORC1. In order to evaluate the inhibitory effect of norathyriol on mTORC1 activity, norathyriol was pretreated for 15 minutes, and then in vitro mTORC1 kinase assay was carried out.
More specifically, the HEK 293T cells were cultured in a DMEM culture medium in which 10% heat inactivated FBS+1× Glutamax was added. 8×10^5 HEK 293T cells were seeded in a 100 mm culture dish, and then they were cultured for 1 day. After mixing 42 μl Lipofectamine, 21 μl plus reagent, and 21 μg Flag-Raptor plasmid DNA to 1 ml OPTI-MEM, it was shaken at a room temperature for 25 minutes to prepare a transfection DNA mixture. The transfection DNA mixture was slowly treated on the cells drop by drop, and after culturing for 5 hours, the culture medium was replaced with a new culture medium. […] The protein concentration of the cell lysate was determined with BCA protein assay kit (Thermo Fisher Scientific). […] Thr389 phosphorylation of GST-S6K1, which is a substrate of mTORC1, was measured by performing immunoblot analysis using phospho Thr389 p70 S6 kinase antibody (#9205S, Cell Signaling) and GST antibody (#A190-122A, Bethyl Laboratories). […]

mTORC2 [1] = biological target: T2, mTORC2 (Homo sapiens, UniProt P42345); assay: In vitro mTORC2 kinase assay (GST-Akt Ser473 phosphorylation, immunoblot); assay type: biochemical; design: mTORC was isolated by co-immunoprecipitation using Flag antibody; made in house; host or cells: HEK 293T transfected with Flag-mLST8; details: assay validation with dual mTOR inhibitor
Description: After introducing Flag-mLST8 into a human cell line 293T, mTORC was isolated by co-immunoprecipitation using Flag antibody. In the in vitro mTORC2 kinase assay, the activity of the isolated mTORC2 was evaluated by measuring phosphorylation of GST-Akt Ser473, which is a selective substrate of mTORC2 by immunoblot analysis. In the control group in which Flag-mLST8 was not introduced, GST-Akt Ser473 phosphorylation was almost not measured. […] Therefore, it was judged that GST-Akt Ser473 phosphorylation measured in the in vitro mTORC2 kinase assay was generated by mTORC2. In order to evaluate the inhibitory effect of norathyriol and athyriol on mTORC2 activity, norathyriol or athyriol was pretreated for 15 minutes, and then in vitro mTORC2 kinase assay was carried out.
More specifically, the HEK 293T cells were cultured in a DMEM culture medium in which 10% heat inactivated FBS+1× Glutamax was added. 8×10^5 HEK 293T cells were seeded in a 100 mm culture dish, and then they were cultured for 1 day. After mixing 42 μl Lipofectamine, 21 μl plus reagent, and 21 μg Flag-mLST8 plasmid DNA to 1 ml OPTI-MEM, it was shaken at a room temperature for 25 minutes to prepare a transfection DNA mixture. The transfection DNA mixture was slowly treated on the cells drop by drop, and after culturing for 5 hours, the culture medium was replaced with a new culture medium. After additional culturing for 48 hours, the cells were […] with CHAPS buffer (50 mM HEPES (pH7.4), 100 mM NaCl, 2 mM EDTA, 0.3% CHAPS, 10 mM sodium pyrophosphate, 10 mM sodium β-glycerophosphate, 1 mM PMSF, 1 μg/ml leupeptin, 1 μg/ml pepstatin A, 10 nM aprotinin, 1 mM Na3VO4, 10 nM calyculin A), and centrifuged at 4° C. at 13,000 rpm for 10 minutes to obtain the supernatant and acquire cell lysate. The protein concentration of the cell lysate was determined with BCA protein assay kit (Thermo Fisher Scientific). After adding anti-Flag M2 affinity gel (50% slurry, Sigma) of 30 μl to the cell lysate of 1 mg, it was shaken at 4° C. for 3 hours. After that, affinity gel was washed with CHAPS buffer 3 times and kinase buffer (50 mM HEPES (pH7.5), 2 mM DTT, 10 mM MnCl2, 10 mM MgCl2) for washing once. After adding kinase buffer [-substrate-ATP] […] After that, kinase buffer (50 mM HEPES (pH7.5), 2 mM DTT, 10 mM MgCl2, 10 mM MnCl2, 1 mM ATP, 500 ng GST-AKT, 10 nM calyculin A) of 10 μl was added and shaken at 30° C. for 45 minutes to progress a kinase reaction. […] Ser473 phosphorylation of GST-AKT, which is a substrate of mTORC2, was measured by performing immunoblot analysis using AKT antibody (#4691, Cell signaling) and phospho Ser473 AKT antibody (#4060, Cell signalig). In order to measure the mTORC2 activity inhibitory effect by the compound, both the kinase buffer [-substrate-ATP] and the kinase buffer included the compound.

mTORC2 [2] = biological target: T2, mTORC2; assay: LocaTOR2 assay in A549 cells (FRB-AKT2 Ser473 phosphorylation); assay type: cell-based; design: endogenous in cells; host or cells: A549 (transfected only with the FKBP-recruiter and the FRB-AKT2 reporter); details: A549, KRas4B^C30-FKBP recruiter, AP21967; norathyriol at 30 μM and 60 μM; FIG. 9a
From the text: mTORC2 is located in the cell membrane, endosome, ER and mitochondrial membrane. mTORC2 forms an mTORC2 complex as an activated form of ras (ras-GTP) operates as a scaffold in the cell membrane, whereas it forms an mTORC2 complex as mLST8 operates as a scaffold in the endosome. By this difference, the mTORC2 inhibitory effect of norathyriol may be shown differently depending on the subcellular compartment where mTORC2 is located. In order to investigate the mTORC2 inhibitory effect of norathyriol depending on the subcellular compartment location, in vivo LocaTOR2 assay was performed (Ebner et al. (2017) J. Cell Biol. 216:343-353). After introducing FKBP-recruiter selectively located in the membrane of the subcellular compartment and FRB^T2098L-AKT2 which is an mTORC2 substrate, AP21967 was treated for 40 minutes to induce binding between the FKBP-recruiter and FRB-AKT2, and FRB-AKT2 was moved to a specific subcellular compartment. In addition, the degree of phosphorylation of Ser473 of FRB-Akt by mTORC2 located in the site thereof was investigated by immunoblot analysis.

Arc protein expression = assay: mGluR-dependent Arc protein expression in cerebral neurons; assay type: cell-based; details: DHPG alone; FIG. 12a
Description: When mGluR is activated in dendritic spines of cerebral neurons, Arc protein is synthesized, and the Arc protein promotes endocytosis of an AMPA receptor to form LTD.
Specifically, DHPG was treated to cerebral neurons, which were obtained by primary culture of white mouse embryo E16 cerebral regions and differentiated for […] (DIV21), for 5 minutes or 10 minutes to activate mGluR. As an Arc antibody, Arc protein (green) and PSD95 (red), which is a marker antibody of postsynaptic density of a synapse, were under
After double immunofluorescent staining of Arc protein with an Arc antidody (green) and PSD95, a marker of postsynaptic density of synapse, with an PSD95 antibody (red), Arc expression in dendritic spines was quantified as the number of Arc+PSD95 double stained puncta per 20 μm neurite length by confocal scanning microscopic scanning.

[3] = biological target: T3, mTORC2 located in late endosome of dendritic spines (Rattus norvegicus, UniProt P42346); assay: LocaTOR2 assay-immunofluorescent staining in primary cultured cerebral neurons (mGluR-dependent mTORC2 activation); assay type: cell-based; details: FIG. 11a
T3 construct: endogenous in cells; host or cells: primary cultured cerebral neurons from SD-rat E16 embryos, transduced by lentivirus only with mCherry-FRB-AKT2 and Rab7-FKBP
From the text: By combining Loca-TOR2 assay and immunofluorescence staining, changes in mTORC2 activity located in the late endosome during the induction process of long term depression (LTD) occurring in dendritic spines of primarily cultured cerebral neurons were investigated, and the inhibitory effect of norathyriol on these changes was investigated.
Specifically, mCherry-FRB-AKT2 and Rab7-FKBP were introduced using a lentiviral vector on the primarily cultured cerebral neuron on the DIV5 day, and AP21967 was treated on the DIV17 day to induce binding of FRB and FKBP, and thereby, mCherry-FRB-AKT2 was located in the late endosome. After that, DHPG, which is an mGluR agonist inducing long-term depression, was treated. […] In addition, by measuring Ser473 phosphorylation staining of mCherry-FRB-AKT2 overlapped with PSD-95 staining, which is a protein located in dendritic spines, by immunofluorescent staining, changes in mTORC2 activity located in the late endosome in the dendritic spines can be investigated. After staining using a phospho-Ser473 AKT antibody by immunofluorescent staining, the degree of AKT Ser473 phosphorylation was quantified by counting the number of each fluorescent puncta larger than 0.4 μm or more in size in the dendrites (green). In addition, the dendritic spines were observed by staining with PSD95 antibody (yellow), and the location of mCherry-FRB-AKT2 was investigated by observing mCherry fluorescence (cherry color).
SD-rat gestational age 16-day mice (Orient Bio) were purchased and the mice were anesthetized with CO2 and then embryos were taken out. Until the forebrain was isolated and the meninges were removed, it was performed by the same method as the hippocampal culture, and when the cerebrum was isolated, the dorsal cortex or ventral cortex was cut with a bended syringe needle, and it was collected in new HBSS. The tissue isolated and collected was transferred to a 15 ml tube with a Pasteur pipette, and then in order to remove the remaining meninges and blood vessels, and the like, 2 ml HBSS and 0.25% trypsin of 2 ml were added, and it was reacted in a 37° C. shaker for 10-15 minutes. The cells were settled and the supernatant was removed leaving 1-2 ml, and then trypsin was inactivated by adding DMEM comprising the equal amount of 20% FBS. After centrifugation at 700 rpm for 15 minutes, the supernatant was discarded all and the collected tissue was released, and then Neurobasal culture medium (+glutamate) of 2 ml was added, and titrated with a pipette, and the cells were isolated by changing to a pipette with a narrow end. […] The number of cells was measured with a hemocytometer, and then the cells were seeded in a coated culture dish. […]

GST-S6K Thr389 phosphorylation (mTORC1) | GST-Akt Ser473 phosphorylation (mTORC2 [1]) | increase of Ser473 phosphorylation of mCherry-FRB-AKT2 located in late endosome of dendritic spines ([3]; after 5 minutes of treating DHPG) [%] | increase of Ser473 phosphorylation of mCherry-FRB-AKT2 located in late endosome of dendritic spines ([3]; after 10 minutes of treating DHPG) [%] | Structure (SMILES) | FRB-AKT2 Ser473 phosphorylation, mTORC2 located in cell membrane (mTORC2 [2]) | Arc synthesis in dendritic spines (immunofluorescent staining) (Arc protein expression) | Ser473 phosphorylation of mCherry-FRB-AKT2 located in late endosome of dendritic spines ([3]; after 20 minutes of treating DHPG)
mostly reduced | mostly reduced |  |  | COc1ccc(-c2ccc3c(N4CCOC[C@@H]4C)nc(N4CCOC[C@@H]4C)nc3n2)cc1CO [AZD8055, reference compound] | reduced the phosphorylation of FRB-AKT2 Ser473 to a level of the control group |  | 
 |  | 55 | 72 | NC(C(=O)O)c1cc(O)cc(O)c1 (stereo not shown) [DHPG, 3,5-dihydroxyphenylglycine] |  | increased up to 10 minutes after treating DHPG | reduced to the level of the control group
